# Structures can show the parent of a compound that is named as a salt. Where two headings read alike, the source gives them in different places.
# Legend:
# PKBα = target: T1, PKBα (Homo sapiens, UniProt P31749); test: PKB kinase assay (P33-labeled ATP, peptide substrate, filter plate); type: biochemical; conditions: with respect to PKBα
# T1 construct: fused on or other part: His6 tag is likely on the Upstate products
# Excerpt: The kinase assay for evaluating PKB activity comprises active PKB enzymes, a PKB specific substrate, and P^33-labeled ATP. Two form of PKBα enzymes were used, the full length PKBα and a kinase domain of PKBα with pleckstrin domain (amino acids 1-117) deleted. Both PKB enzymes were obtained from Upstate cell signaling solutions (Cat.# 14-276 and 14-341). The PKB substrate used is a synthetic peptide (ARKRERTYSFGHHA (SEQ ID NO: 1)) as described in Obata et al., J. Biol. Chem. 275 (46), 36108-36115 (2000). The phosphorylated substrate was captured by a phosphocellulose membrane filter plate (MILLIPORE) and measured by a Wallac Microbeta liquid scintillation counter (Perkin Elmer). Table 1 provides the IC50 values obtained for each of the examples with respect to PKBα.
# [1] = In vivo pharmacokinetics, IV and oral gavage; parameters: species or system male Sprague-Dawley rats; conditions: rat; for FPO: Table 5; for Fpo (%): Table 6; for clearance / AUC(0-t) / Cmax / Vd: male, Sprague-Dawley, plasma; for Vd: read-out: Vss
# Procedure: In vivo pharmacokinetic parameters were determined by measuring systemic plasma exposure in male Sprague-Dawley rats (Charles River Laboratories or Taconic, Oxnard, Calif.) by intravenous administration (N=3 fed rats: 2 mg/kg tail vein injection in DMSO) and oral gavage (N=3 fasted rats: 5 mg/kg in 1% Tween 80-2% HPMC-97% deionized water-pH 2.0 vehicle) (Comparative Example 18′ was only dosed IV and at 0.5 mg/kg). DMSO was obtained from Mallinckrodt Inc.; Tween 80 was obtained from Croda; HPMC is Methocel E50 Premium LV, obtained from Dow Excipients. Following oral administration, blood was drawn (250 μL) at 0.25, 0.5, 1, 2, 4, 6, 8, 12, and 16 hours. Following iv administration, blood was drawn (250 μL) at 0.083, 0.25, 0.5, 1, 2, 4, 6, 8, and 16 hours. Blood samples were drawn using a Culex® In Vivo Sampling System (BASi) and collected in BD Microtainer® tubes containing Lithium Heparin (BD). Plasma was obtained by centrifugation of blood at 14000 g and 2-8° C. for five minutes using an Eppendorf 5417R Centrifuge System. Plasma samples were mixed with 2× volume of acetonitrile (Sigma-Aldrich, St. Louis, Mo.). The mixture was stirred briefly using a vortex mixer and then centrifuged at 2867 g for 5 minutes in a Beckman Coulter Allegra 25R equipped with a Type S5700 rotor. The supernatant was removed and diluted 2× with mobile phase A (5/94.9/0.1 v/v/v MeOH/water/AcOH). Plasma concentrations were determined using liquid chromatography/tandem mass spectrometry, with electrospray ionization (ESI) and multiple reaction monitoring in the positive ion mode (Sciex API 3000 mass spectrometer connected to a Shimadzu LC-20AD pump and a LEAP PAL autosampler. Typical conditions used for HPLC were: mobile phase A=5/94.9/0.1 v/v/v MeOH/water/AcOH and mobile phase B=95/4.9/0.1 v/v/v MeOH/water/AcOH; HPLC column was a Varian MonoChrom C18.3μ for 2×30 mm and 51.1 for 2×50 mm) Instrument response was calibrated by a standard curve over 0.1-2000 ng/mL concentration range, and the lower limit of quantitation was 0.1-2.5 ng/mL. Peak areas were integrated on a Windows 2000 computer using the Sciex program Analyst® (Version 1.4.1). Following peak area integration, the data were exported to the software package (Watson® Non-GLP PROD (Version 7.0.0.01, Thermo Electron Corp., Waltham, Mass.)), where concentrations were determined by a weighted linear regression of peak area versus the nominal concentrations of the calibration standards. Calculations were performed on unrounded numbers. The Watson® Non-GLP PROD software was used to determine precision and accuracy for the calibration standards. Noncompartmental analysis of plasma concentration data was used to generate PK parameters such as clearance (CL, L/h/kg), volume of distribution (Vss, L/kg), area under the curve (AUC, ng·h/mL) and secondary parameters such as half-life (t1/2, h) and oral bioavailability (% F, %). This was done using WinNonlin Enterprise software (Version 5.1.1, from Pharsight Corp., Mountain View, Calif.). References for pharmacokinetic analysis include: Gabrielsson and Weiner (1997) Pharmacokinetic and Pharmacodynamic Data Analysis Concepts and Applications, 2nd ed., Swedish Pharmaceutical Press, Stockholm; Gibaldi and Perrier (1982) Pharmacokinetics, 2nd ed., Marcel Dekker, New York. Rowland and Tozer (1995) Clinical Pharmacokinetics: Concepts and Applications, 3rd ed., Lippincott Williams & Wilkins, Philadelphia.
# U87MG tumors = test: U87MG xenograft tumor growth model; type: in vivo, Athymic nude mice; conditions: oral 10, 30, 60 and 100 mg/kg/day; 13 days (Example 2), 10 days and 17 days (Example 18)
# Procedure: The effect of PKB inhibition on tumor growth in vivo was assessed in an established U87MG xenograft model for Examples 2 and 18. Athymic nude mice bearing U87MG tumors (approximately 200 mm^3) in the right flank were treated with the compound orally at the dosage of 10, 30, 60, and 100 mg/kg/day (n=10) for 13 days (Example 2) and for 10 days and 17 days (Example 18). Tumor volume and body weight were measured twice per week. Data were expressed as means plus or minus standard errors and plotted as a function of time. Statistical significance of the effect was evaluated by Repeated Measures Analysis of Variance (RMANOVA) followed by Scheffe post hoc testing for multiple comparisons.
# [2] = IV 2 mg/kg, read-out: IV AUClast
# [3] = PO 5 mg/kg, read-out: Oral AUClast
# [4] = PO 5 mg/kg, read-out: Oral Cmax
# T1 sequence (P31749 118-472 limits assumed): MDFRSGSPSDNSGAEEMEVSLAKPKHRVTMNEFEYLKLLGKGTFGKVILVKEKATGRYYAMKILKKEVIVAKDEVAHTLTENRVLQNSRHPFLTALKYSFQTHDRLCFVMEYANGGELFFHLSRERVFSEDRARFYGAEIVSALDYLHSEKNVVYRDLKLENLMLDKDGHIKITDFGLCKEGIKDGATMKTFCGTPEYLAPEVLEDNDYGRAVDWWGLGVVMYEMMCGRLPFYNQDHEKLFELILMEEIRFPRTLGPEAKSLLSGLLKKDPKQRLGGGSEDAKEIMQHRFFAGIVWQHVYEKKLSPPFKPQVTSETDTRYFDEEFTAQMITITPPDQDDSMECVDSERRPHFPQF
Structure (SMILES),IC50 (PKBα) [nM],"FPO ([1]; PO 5 mg/kg, IV 2 mg/kg) [%]","Fpo (%) ([1]; PO 5 mg/kg, IV 2 mg/kg)",clearance ([1]; IV 2 mg/kg) [mL/min/kg],"AUC(0-t) [1, 2] [ng·h/mL]","Cmax ([1]; IV 2 mg/kg, read-out: IV Cmax) [ng/mL]",Vd ([1]; IV 2 mg/kg) [L/kg],"AUC(0-t) [1, 3] [ng·h/mL]","Cmax [1, 4] [ng/mL]",tumor growth inhibition (U87MG tumors)
"N[C@H](CNc1ncc(-c2ccc3cnc(F)cc3c2)s1)[C@@H](CO)c1ccc(C(F)(F)F)cc1 [Example 33, (2S,3S)-3-Amino-4-(5-(3-fluoroisoquinolin-6-yl)thiazol-2-ylamino)-2-(4-(trifluoromethyl)phenyl)butan-1-ol]",< 50,28,28,9.02,3130,803,3.41,2150,268,
CC(F)(F)c1ccc(C[C@H](N)CCc2ncc(-c3ccc4cnc(F)cc4c3)s2)cn1 [Example 50],< 50,103,85,45.1,709,165,15.3,1820,228,
"N[C@H](CNc1ncc(-c2ccc3cnc(F)cc3c2)s1)CN1CCC(C(F)(F)F)CC1 [Example 25, N—((R)-2-Amino-3-(4-(trifluoromethyl)piperidin-1-yl)propyl)-5-(3-fluoroisoquinolin-6-yl)thiazol-2-amine]",50 to 1000,55,34,29.9,1100,396,9.88,1500,58,
"CC(F)(F)c1ccc([C@H](O)[C@H](N)CNc2ncc(-c3ccc4cnc(F)cc4c3)s2)cc1 [Example 38, (1S,2R)-2-Amino-1-(4-(1,1-difluoroethyl)phenyl)-3-((5-(3-fluoro-6-isoquinolinyl)-1,3-thiazol-2-yl)amino)-1-propanol trifluoroacetate]",< 50,36,45,8.53,3010,473,9.48,2730,100,
"N[C@H](CNc1ncc(-c2ccc3cnc(F)cc3c2)s1)Cc1ccc(C(F)(F)F)cc1 [Example 4, N—((S)-2-Amino-3-(4-(trifluoromethyl)phenyl)propyl)-5-(3-fluoroisoquinolin-6-yl)thiazol-2-amine trifluoroacetate]",< 50,4,65,21.6,1530,959,2.59,165,25,
"N[C@H](CNc1ncc(-c2ccc3cnc(F)cc3c2)s1)Cc1ccc(Cl)c(F)c1 [Example 44, (2S)-3-(4-Chloro-3-fluorophenyl)-N-1-(5-(3-fluoro-6-isoquinoliny)-1,3-thiazol-2-yl)-1-2-propanediamine]",< 50,65,67,8.2,2030,292,11.4,3290,261,
"N[C@H](CCc1ncc(-c2ccc3cnc(F)cc3c2)s1)[C@@H](O)c1ccc(C(F)(F)F)cc1 [Example 36, (1S,2R)-2-Amino-4-(5-(3-fluoroisoquinolin-6-yl)thiazol-2-yl)-1-(4-(trifluoromethyl)phenyl)butan-1-ol trifluoroacetate]",< 50,64,66,14.6,1600,210,14.4,2560,206,
"CC(F)(F)c1ccc(C[C@H](N)CNc2ncc(-c3ccc4cnc(F)cc4c3)s2)cn1 [Example 7, N—((S)-2-Amino-3-(6-(1,1-difluoroethyl)pyridin-3-yl)propyl)-5-(3-fluoroisoquinolin-6-yl)thiazol-2-amine]",< 50,42,47,22.2,1440,432,6.22,1500,216,
"C[C@@H](c1ccc(C(F)(F)F)cc1)[C@H](N)CNc1ncc(-c2ccc3cnc(F)cc3c2)s1 [Example 10, N-((2S,3S)-2-Amino-3-(4-(trifluoromethyl)phenyl)butyl)-5-(3-fluoroisoquinolin-6-yl)thiazol-2-amine]",< 50,61,52,12.5,2040,426,7.17,3100,316,
"N[C@H](CNc1ncc(-c2ccc3cnc(F)cc3c2)s1)Cc1ccc(C(F)(F)F)nc1 [Example 2, (2S)—N-(5-(3-Fluoro-6-isoquinolinyl)-1,3-thiazol-2-yl)-3-(6-(trifluoromethyl)-3-pyridinyl)-1,2-propanediamine]",< 50,40,57,12.1,2370,531,5.19,2380,302,Dose dependent tumor growth inhibition
"COCc1nc(NC[C@@H](N)Cc2ccc(C(F)(F)F)nc2)sc1-c1ccc2cnc(F)cc2c1 [Example 18, N—((S)-2-Amino-3-(6-(trifluoromethyl)pyridin-3-yl)propyl)-5-(3-fluoroisoquinolin-6-yl)-4-(methoxymethyl)thiazol-2-amine]",< 50,40,48,17.6,1640,422,8.08,1640,233,Dose dependent tumor growth inhibition

# Reference: patent US20110263647A1 (AMGEN INC., priority 2009, published 2011)
